Measured values taken from article PMC12005787, “Synthetic Lethality of SHP2 and XIAP Suppresses Proliferation and Metastasis in KRAS‐mutant Nonsmall Cell Lung Cancer” (Advanced Science, 2025).
pIC50: −log10 of the molar value.

Legend:
TCPTP = target: T1, TCPTP (Homo sapiens, UniProt P17706); assay: PTPs activity assay (DiFMUP); assay type: biochemical
T1 construct: His; made in house; host or cells: E. coli
T1 sequence (P17706 1-415): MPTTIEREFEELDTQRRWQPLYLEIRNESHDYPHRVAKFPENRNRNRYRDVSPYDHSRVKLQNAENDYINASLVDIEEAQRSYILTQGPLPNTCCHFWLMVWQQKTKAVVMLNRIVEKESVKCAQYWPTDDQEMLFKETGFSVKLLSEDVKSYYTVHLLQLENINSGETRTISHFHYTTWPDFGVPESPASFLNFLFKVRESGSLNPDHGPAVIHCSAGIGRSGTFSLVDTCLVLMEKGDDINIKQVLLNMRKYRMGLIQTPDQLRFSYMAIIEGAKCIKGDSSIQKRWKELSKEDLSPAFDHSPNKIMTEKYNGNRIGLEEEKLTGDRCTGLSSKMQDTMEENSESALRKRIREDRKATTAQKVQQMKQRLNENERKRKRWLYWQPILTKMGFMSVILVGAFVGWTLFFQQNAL
Procedure: Catalytic activity screening methods for PTPs using candidate compounds were performed as previously described.^[ [77] ^] In brief, soluble fusion PTP proteins, His‐ΔSHP2, encompassing the peptide from amino acids 205–593 retaining PTP activity, His‐ΔSHP2^K325A, His‐ΔSHP1, encompassing the peptide from amino acids 202–595 retaining PTP activity, His‐PTP1B, His‐HePTP, His‐VHR, and His‐TCPTP were cloned, expressed, and purified in E. coli. After determining protein concentration using bicinchoninic acid (BCA) assay kit, 1 µg fusion protein, 10 µM library compound were added in 100 µL reaction mixture (55 mM 4‐(2‐hydroxyethyl)‐1‐piperazineethanesulfonic acid [HEPES], 100 mM sodium chloride [NaCl], 0.5 mM ethylenediaminetetraacetic acid [EDTA], 1 mM dithiothreitol [DTT], 0.01% Triton X‐100, 0.002% bovine serum albumin [BSA], and 0.1% dimethyl sulfoxide [DMSO]) and incubated at 37 °C for 30 min in the dark, with Na3VO4 as positive control. The detection substrate DiFMUP (50 µM) was promptly added to each reaction and functioned at 37 °C for 30 min in the dark. The fluorescence intensity was then measured using Multimode Plate Reader (λa = 358 nm, λe = 455 nm, PerkinElmer, USA).

[1] = system: MEK and ERK phosphorylation in NCI‐H2122 and A549 cells; assay: MEK and ERK phosphorylation (western blotting); assay type: cell-based, human; details: 24 h
NCI‐H2122 cells = assay: Cell cycle assay; assay type: cell-based, human; details: embelin 15 µM or SHP099 10 µM for 72 h
Procedure: NCI-H2122 cells treated with given disposal were washed with pre-cooled PBS, fixed
with ice pre-cooled 70% ethanol at 4℃ for 2 h. And then PI staining solution (containing
RNaseA) was incubated in dark at 37℃ for 30 min. Red fluorescence and light scattering
were detected by flow cytometry at 488 nm. Cell cycle results were analyzed and visualized
using ModFit LT and FlowJo software. […]
(1 picture or pasted object on this page, not shown here)

[2] = system: SHP2 phosphorylation in HeLa cells; assay: SHP2 phosphorylation in EGF-stimulated HeLa cells (immunoblotting); assay type: cell-based; details: for effect on the level of SHP2 phosphorylation: 20 µM for 2 h before EGF (10 ng mL^−1); for effect on EGF-induced phosphorylation of SHP2 (Y542 and Y580) and ERK: pretreatment 2 h, SHP099 20 µM, embelin different concentrations, EGF 10 ng mL^−1 2 h
Description: Figure 1 Embelin inhibits KRAS‐mutant tumor development. A) Correlation detection between mRNA expression of PTPN11 and KRAS in patients with LUAD (n = 706) using IlluminaHiSeq analysis with data derived from TCGA database. B) Correlation and number at risk of SHP2 expression with the overall survival probability of KRAS mutant lung cancer patients (n = 92) in the TCGA database. C) Protein expression and phosphorylation levels of SHP2 in RAS‐WT, NRAS, HRAS, and KRAS‐mutant cells. D) Effect of 3471 bioactive compounds at 10 µM against SHP2, with Na3VO4 serving as a control. Z’ factor values for 69 plates screened, Z’ = 0.81, S/N = 40.8. E) Binding energy between candidate drugs and SHP2 full‐length domain, catalytic region, and ΔSHP2 domain. F) HeLa cells were pretreated with DMSO, SHP099, or various compounds at 20 µM for 2 h before stimulation with EGF (10 ng mL^−1) for an additional 2 h. Cell lysates were subjected to immunoblotting with SHP2, p‐SHP2, and GAPDH antibodies. Data are from three independent experiments are presented. G) Spearman's correlation coefficient between drug‐related targets and KRAS mRNA in different types of tumors through the TCGA database. H) BCL2, TPO, RAF1, MCL1, MPL, and XIAP mRNA expression levels in LUAD tumors and adjacent tissues through the TCGA database. I) XIAP protein expression in RAS‐WT, NRAS‐mutant, HRAS‐mutant, and KRAS‐mutant cells. J) Effect of candidate drugs (10 µM) on colony formation in A549, NCI‐H2122, and NCI‐H1944 cells.
Figure 6 Embelin disrupts the SHP2 signaling complex in KRAS‐mutant NSCLC cells. A) HeLa cells were pretreated with SHP099 (20 µM) or different concentrations of embelin for 2 h and stimulated with EGF (10 ng mL^−1) for 2 h, the protein expression of RAS/MAPK signaling pathway in HeLa cells was detected. B) After treatment of embelin and SHP099 (10 µM) in NCI‐H2122 and A549 cells for 12 h, cell lysates were collected. One part was used to measure Gab1, Grb2, and SOS1 expression, and the other part underwent IP with SHP2 antibody. Then, binding of Gab1, Grb2, and SOS1 with SHP2 was detected. C) After treatment of embelin and SHP099 (10 µM) for 24 h, the expression of Gab1, p‐Gab1, Grb2, and SOS1 proteins in A549 and NCI‐H2122 cells were detected. […] Co‐localization of these proteins with SHP2 was detected using IF. […]
After given treatment, cells were lysed by ice bath with radio-immunoprecipitation assay (RIPA) buffer containing 1% phenylmethylsulphonyl fluoride (PMSF), and the supernatant was collected by centrifugation, and the protein concentration was subsequently determined using a BCA Protein Assay Kit. […]

SMILES | pIC50 (TCPTP) | effect on MEK and ERK phosphorylation [1] | effect on cell cycle (NCI‐H2122 cells) | effect on the level of SHP2 phosphorylation [2] | effect on EGF-induced phosphorylation of SHP2 (Y542 and Y580) and ERK [2]
CCCCCCCCCCCC1=C(O)C(=O)C=C(O)C1=O [Embelin] | < 3.70 | inhibited MEK and ERK phosphorylation | blocked the G2/M cycle | significantly inhibited SHP2 phosphorylation | significantly inhibited these phosphorylation levels
O=C1Nc2ccc(I)cc2/C1=C/c1cc(Br)c(O)c(Br)c1 [S2872, GW5074] | 3.49 | – | – | significantly inhibited SHP2 phosphorylation | –
CC1(N)CCN(c2cnc(-c3cccc(Cl)c3Cl)c(N)n2)CC1 [SHP099] | – | did not affect MEK phosphorylation in A549 cells | had no effect | – | significantly inhibited these phosphorylation levels
